Patent US10858360B2, “Tricyclic gyrase inhibitors” (priority 2011, dated 2020)
≈ marks a conversion by molar mass, not a printed value.

How the values were obtained:
[1] = system: S. aureus ATCC 13709; assay: MIC, S. aureus ATCC 13709 (Alamar Blue broth microdilution); type: cell-based; conditions: Alamar Blue read after overnight incubation at 35° C.; for MIC: Staphylococcus aureus, ATCC13709, S. aureus; for MIC Sa: S. aureus
[2] = system: E. coli ATCC 25922; assay: MIC, E. coli ATCC 25922; type: cell-based; conditions: Alamar Blue read after overnight incubation at 35° C.; for MIC: Escherichia coli, ATCC25922, E. coli; for MIC Ec: E. coli

Compound	MIC [1] [µg/mL]	MIC [2] [µg/mL]	MIC Sa [1] [µg/mL]	MIC Ec [2] [µg/mL]
CNc1cc(F)cc2c1[nH]c1nc(Oc3cnc(N)nc3)nc(N3CCC4(CC4N)C3)c12 (stereo not shown) [4.173]	≤ 0.5	1 (≈ 2.3 µM)		
CNc1cc(F)cc2c1[nH]c1nc(Oc3cnc(N)nc3)nc(N3CC4CNC(C4)C3)c12 (stereo not shown) [4.175]	≤ 0.5	8 (≈ 18.4 µM)		
CNc1cc(F)cc2c1[nH]c1nc(Oc3cnc(N)nc3)nc(N3CCC(CN)C3)c12 (stereo not shown) [4.176]	≤ 0.5	1 (≈ 2.36 µM)		
CNc1cc(F)cc2c1[nH]c1nc(Oc3cnc(N)nc3)nc(N3CC(N)C4(CC4)C3)c12 (stereo not shown) [4.177]			≤0.5	≤0.5
CNc1cc(F)cc2c1[nH]c1nc(Oc3cnc(N)nc3)nc(N3CC4CNC4C3)c12 (stereo not shown) [4.178]	≤ 0.5	8 (≈ 19 µM)		
CNc1cc(F)cc2c1[nH]c1nc(Oc3cnc(N)nc3)nc(N3CCC(N)C3)c12 (stereo not shown) [4.179]			≤0.5	1 (≈ 2.44 µM)
CNc1cc(F)cc2c1[nH]c1nc(Oc3cnc(N)nc3)nc(N3CCCC(N)C3)c12 (stereo not shown) [4.180]			1 (≈ 2.36 µM)	8 (≈ 18.9 µM)
CNc1cc(F)cc2c1[nH]c1nc(Oc3cnc(N)nc3)nc(N3CCC4CNC4C3)c12 (stereo not shown) [4.181]	≤ 0.5	8 (≈ 18.4 µM)		
CNc1cc(F)cc2c1[nH]c1nc(Oc3cnc(N)nc3)nc(N3CC(NC(=O)CN)C4(CC4)C3)c12 (stereo not shown) [4.182]			2 (≈ 4.06 µM)	16 (≈ 32.5 µM)
CNc1cc(F)cc2c1[nH]c1nc(Oc3cnc(N)nc3)nc(N3C4CCC3CC(N)C4)c12 (stereo not shown) [4.183]	1 (≈ 2.22 µM)	8 (≈ 17.8 µM)		
CNc1cc(F)cc2c1[nH]c1nc(Oc3cnc(N)nc3)nc(N3CC4CC4(CN)C3)c12 (stereo not shown) [4.185]	≤ 0.5	8 (≈ 18.4 µM)		
CNc1cc(F)cc2c1[nH]c1nc(Oc3cnc(N)nc3)nc(N3C[C@H]4CC[C@@H](N)[C@H]4C3)c12 [4.186]	≤ 0.5	2 (≈ 4.45 µM)		
CNc1cc(F)cc2c1[nH]c1nc(Oc3cnc(N)nc3)nc(N3C[C@H]4CCN[C@H]4C3)c12 [4.187]	≤ 0.5	2 (≈ 4.59 µM)		
CNc1cc(F)cc2c1[nH]c1nc(Oc3cnc(N)nc3)nc(N3CC4C(CN)C4C3)c12 (stereo not shown) [4.188]	≤ 0.5	8 (≈ 18.4 µM)		
CNc1cc(F)cc2c1[nH]c1nc(Oc3cnc(N)nc3)nc(N3CC4CCC(N)C4C3)c12 (stereo not shown) [4.189]	≤ 0.5	2 (≈ 4.45 µM)		
CNc1cc(F)cc2c1[nH]c1nc(Oc3cnc(N)nc3)nc(N3CC4C[C@@H](N)C4C3)c12 (stereo partly shown) [4.190]	≤ 0.5	1 (≈ 2.3 µM)		
CNc1cc(F)cc2c1[nH]c1nc(Oc3cnc(N)nc3)nc(N3C[C@H]4CC3C[C@H]4N)c12 [4.191]	≤ 0.5	2 (≈ 4.59 µM)		
CNc1cc(F)cc2c1[nH]c1nc(Oc3cnc(SC)nc3)nc(N3CC4C(N)C4C3)c12 (stereo not shown) [4.193]	≤ 0.5	≤ 0.5		
CNc1cc(F)cc2c1[nH]c1nc(Oc3cnc(SC)nc3)nc(N3C[C@H](N)C4(CC4)C3)c12 [4.194]	≤ 0.5	≤ 0.5		
CNc1cc(F)cc2c1[nH]c1nc(Oc3cnc(SC)nc3)nc(N3CCC4(CC4N)C3)c12 (stereo not shown) [4.195]	≤ 0.5	1 (≈ 2.14 µM)		
CNc1cc(F)cc2c1[nH]c1nc(Oc3cnc(SC)nc3)nc(N3CC4CC(N)C4C3)c12 (stereo not shown) [4.196]	≤ 0.5	≤ 0.5		

Compound	MIC [1] [µg/mL]	MIC [2] [µg/mL]	MIC Sa [1] [µg/mL]	MIC Ec [2] [µg/mL]
CNc1cc(F)cc2c1[nH]c1nc(Oc3cnc(SC)nc3)nc(N3CC4C(CN)C4C3)c12 (stereo not shown) [4.197]			≤0.5	≤0.5
CNc1cc(F)cc2c1[nH]c1nc(Oc3cnc(SC)nc3)nc(N3CC4CCNC4C3)c12 (stereo not shown) [4.198]	≤ 0.5	≤ 0.5		
CNc1cc(F)cc2c1[nH]c1nc(Oc3cnc(SC)nc3)nc(N3CCC(N)C3)c12 (stereo not shown) [4.199]			≤0.5	≤0.5
CNc1cc(F)cc2c1[nH]c1nc(Oc3cnc(SC)nc3)nc(N3CC4CCC(N)C4C3)c12 (stereo not shown) [4.200]			≤0.5	≤0.5
CNc1cc(F)cc2c1[nH]c1nc(Oc3cnc(SC)nc3)nc(N3CC4C[C@@H](N)C4C3)c12 (stereo partly shown) [4.201]	≤ 0.5	≤ 0.5		
CNc1cc(F)cc2c1[nH]c1nc(Oc3cnc(SC)nc3)nc(N3CCC4(C[C@H]4N)C3)c12 (stereo partly shown) [4.203]			≤0.5	≤0.5
CNc1cc(F)cc2c1[nH]c1nc(Oc3cnc(SC)nc3)nc(N3C[C@H]4C[C@@H]3C[C@H]4N)c12 [4.204]			≤0.5	≤0.5
CNc1cc(F)cc2c1[nH]c1nc(Oc3cncc(-c4cncnc4)c3)nc(N3CC4C(N)C4C3)c12 (stereo not shown) [4.205]	≤ 0.5	≤ 0.5		
CNc1cc(F)cc2c1[nH]c1nc(Oc3cncc(-c4cn[nH]c4)c3)nc(N3CC4C(N)C4C3)c12 (stereo not shown) [4.206]	≤ 0.5	4 (≈ 8.48 µM)		
CNc1cc(F)cc2c1[nH]c1nc(Oc3cnc(N(C)C)nc3)nc(N3CCC(N)C3)c12 (stereo not shown) [4.207]			≤0.5	≤0.5
CNc1cc(F)cc2c1[nH]c1nc(Oc3cnc(N(C)C)nc3)nc(N3CC4C(N)C4C3)c12 (stereo not shown) [4.208]	≤ 0.5	≤ 0.5		
CNc1cc(F)cc2c1[nH]c1nc(Oc3cnc(N(C)C)nc3)nc(N3C[C@H](N)C4(CC4)C3)c12 [4.209]	≤ 0.5	≤ 0.5		
CNc1cc(F)cc2c1[nH]c1nc(Oc3cncc(-c4nnn(C)n4)c3)nc(N3CC4C(N)C4C3)c12 (stereo not shown) [4.210]			≤0.5	1 (≈ 2.05 µM)
CNc1cc(F)cc2c1[nH]c1nc(Oc3cnc(N4CCOCC4)nc3)nc(N3CC4C(N)C4C3)c12 (stereo not shown) [4.211]			16 (≈ 32.6 µM)	>16
CNc1cc(F)cc2c1[nH]c1nc(Oc3cnc(N4CCOCC4)nc3)nc(N3CCC(N)C3)c12 (stereo not shown) [4.212]			≤0.5	≤0.5
CNc1cc(F)cc2c1[nH]c1nc(Oc3cnc(N4CCOCC4)nc3)nc(N3CC(N)C4(CC4)C3)c12 (stereo not shown) [4.213]			≤0.5	1 (≈ 1.98 µM)
CNc1cc(F)cc2c1[nH]c1nc(Oc3cnc(N4CCOCC4)nc3)nc(N3CCC4(CC4N)C3)c12 (stereo not shown) [4.214]	≤ 0.5	2 (≈ 3.96 µM)		
CNc1cc(F)cc2c1[nH]c1nc(Oc3cnc(N4CCOCC4)nc3)nc(N3CCC(CN)C3)c12 (stereo not shown) [4.215]	≤ 0.5	4 (≈ 8.1 µM)		
CNc1ncc(Oc2nc(N3CC(N)C4(CC4)C3)c3c(n2)[nH]c2c(NC)cc(F)cc23)cn1 (stereo not shown) [4.216]			≤0.5	≤0.5
CNc1ncc(Oc2nc(N3CC4C(N)C4C3)c3c(n2)[nH]c2c(NC)cc(F)cc23)cn1 (stereo not shown) [4.218]	≤ 0.5	≤ 0.5		
CNc1ncc(Oc2nc(N3CCC(N)C3)c3c(n2)[nH]c2c(NC)cc(F)cc23)cn1 (stereo not shown) [4.219]			≤0.5	≤0.5

Compound	MIC [1] [µg/mL]	MIC [2] [µg/mL]	MIC Sa [1] [µg/mL]	MIC Ec [2] [µg/mL]
CNc1ncc(Oc2nc(N3CCC4(CC4N)C3)c3c(n2)[nH]c2c(NC)cc(F)cc23)cn1 (stereo not shown) [4.220]	≤ 0.5	≤ 0.5		
CNc1ncc(Oc2nc(N3CC4CC(N)C4C3)c3c(n2)[nH]c2c(NC)cc(F)cc23)cn1 (stereo not shown) [4.221]	≤ 0.5	2 (≈ 4.45 µM)		
CNc1cc(F)cc2c1[nH]c1nc(Oc3cnc(NC4CC4)nc3)nc(N3CCC(N)C3)c12 (stereo not shown) [4.222]			≤0.5	≤0.5
CNc1cc(F)cc2c1[nH]c1nc(Oc3cnc(NC4CC4)nc3)nc(N3CC4C(N)C4C3)c12 (stereo not shown) [4.223]	≤ 0.5	≤ 0.5		
CNc1cc(F)cc2c1[nH]c1nc(Oc3cncc(-c4nn[nH]n4)c3)nc(N3CC4C(N)C4C3)c12 (stereo not shown) [4.224]	1 (≈ 2.11 µM)	> 16		
CNc1cc(F)cc2c1[nH]c1nc(Oc3cnc4c(c3)ncn4C)nc(N3CCC(N)C3)c12 (stereo not shown) [4.225]			≤0.5	2 (≈ 4.47 µM)
CNc1cc(F)cc2c1[nH]c1nc(Oc3cnc4c(c3)ncn4C)nc(N3CC4CC(N)C4C3)c12 (stereo not shown) [4.226]			≤0.5	2 (≈ 4.22 µM)
CNc1cc(F)cc2c1[nH]c1nc(Oc3cnc4c(c3)ncn4C)nc(N3CC4C[C@@H](N)C4C3)c12 (stereo partly shown) [4.227]	≤ 0.5	1 (≈ 2.11 µM)		
CNc1cc(F)cc2c1[nH]c1nc(Oc3cnc4c(c3)ncn4C)nc(N3CC4CC3CC4N)c12 (stereo not shown) [4.228]			≤0.5	1 (≈ 2.11 µM)
CNc1cc(F)cc2c1[nH]c1nc(Oc3cnc(N4CCN(C(C)=O)CC4)nc3)nc(N3CCC(N)C3)c12 (stereo not shown) [4.229]			≤0.5	2 (≈ 3.84 µM)
CNc1cc(F)cc2c1[nH]c1nc(Oc3ccnnc3)nc(N3CC(N)C4(CC4)C3)c12 (stereo not shown) [4.230]			32 (≈ 76.1 µM)	>16
CNc1cc(F)cc2c1[nH]c1nc(Oc3ccc4nc[nH]c(=O)c4c3)nc(N3CC4C(N)C4C3)c12 (stereo not shown) [4.231]			≤0.5	2 (≈ 4.23 µM)
CNc1cc(F)cc2c1[nH]c1nc(Oc3cnc(C(C)C)nc3)nc(N3CC4C(N)C4C3)c12 (stereo not shown) [4.232]			≤0.5	≤0.5
CNc1cc(F)cc2c1[nH]c1nc(Oc3cnc(C(C)C)nc3)nc(N3C[C@H](N)C4(CC4)C3)c12 [4.233]	≤ 0.5	1 (≈ 2.16 µM)		
CNc1cc(F)cc2c1[nH]c1nc(Oc3cnc(C(C)C)nc3)nc(N3CC4CC(N)C4C3)c12 (stereo not shown) [4.234]			≤0.5	1 (≈ 2.16 µM)
CNc1cc(F)cc2c1[nH]c1nc(Oc3cnc(C(C)C)nc3)nc(N3CCC4(CC4N)C3)c12 (stereo not shown) [4.235]	≤ 0.5	≤ 0.5		
CNc1cc(F)cc2c1[nH]c1nc(Oc3cncc(C(N)=O)c3)nc(N3CC4CC(N)C4C3)c12 (stereo not shown) [4.236]	≤ 0.5	≤ 0.5		
CNc1cc(F)cc2c1[nH]c1nc(Oc3cncc(C(N)=O)c3)nc(N3CC4C(N)C4C3)c12 (stereo not shown) [4.237]	≤ 0.5	2 (≈ 4.46 µM)		
CNc1cc(F)cc2c1[nH]c1nc(Oc3cncc(C(N)=O)c3)nc(N3CC(N)C4(CC4)C3)c12 (stereo not shown) [4.238]			2 (≈ 4.32 µM)	>16
CNc1cc(F)cc2c1[nH]c1nc(Oc3cncc(C(N)=O)c3)nc(N3CC4CC(N)C4C3)c12 (stereo not shown) [4.239]			≤0.5	8 (≈ 17.3 µM)
